From PMC5600277 (Neuropharmacology, 2017) come the findings set out here.

Where two headings read alike, the source gives them in different places.

Assay type in all cases: cell-based
The target of test [1] is T1, GABAρ receptor (GABAAR ρ1) (Homo sapiens, UniProt P24046). Nature of the test: two-electrode voltage clamp in Xenopus oocytes, […] potentiation at […]. Particulars: read-out: % potentiation at 10 μM. In general terms: In two-electrode clamp one electrode senses voltage and the other passes current.
Test [2] concerns the target T2, GLIC (Gloeobacter violaceus, UniProt Q7NDN8).
T2 sequence (Q7NDN8 44-359): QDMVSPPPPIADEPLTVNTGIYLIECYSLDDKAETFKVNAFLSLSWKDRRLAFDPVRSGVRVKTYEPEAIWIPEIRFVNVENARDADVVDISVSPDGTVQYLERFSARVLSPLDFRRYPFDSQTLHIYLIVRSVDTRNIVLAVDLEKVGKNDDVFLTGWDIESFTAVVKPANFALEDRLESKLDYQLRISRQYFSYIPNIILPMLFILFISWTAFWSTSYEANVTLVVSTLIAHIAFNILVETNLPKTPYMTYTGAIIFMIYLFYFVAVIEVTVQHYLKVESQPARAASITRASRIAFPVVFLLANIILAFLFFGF
Nature of the test: two-electrode voltage clamp in Xenopus oocytes, […] inhibition at […]. Particulars: read-out: % inhibition at 30 μM.

Test [3] addresses T1, GABAρ receptor (GABAAR ρ1). The description is as above. As to conditions: read-out: % inhibition at 10 μM.
Test [4] deals with T2, GLIC. Described as above. As to conditions: read-out: % inhibition at 30 μM. The source holds these as a separate data set.
Test [5] concerns the target T2, GLIC. The description is as above. Particulars: read-out: % inhibition at 100 μM.

T1 sequence (P24046 22-479): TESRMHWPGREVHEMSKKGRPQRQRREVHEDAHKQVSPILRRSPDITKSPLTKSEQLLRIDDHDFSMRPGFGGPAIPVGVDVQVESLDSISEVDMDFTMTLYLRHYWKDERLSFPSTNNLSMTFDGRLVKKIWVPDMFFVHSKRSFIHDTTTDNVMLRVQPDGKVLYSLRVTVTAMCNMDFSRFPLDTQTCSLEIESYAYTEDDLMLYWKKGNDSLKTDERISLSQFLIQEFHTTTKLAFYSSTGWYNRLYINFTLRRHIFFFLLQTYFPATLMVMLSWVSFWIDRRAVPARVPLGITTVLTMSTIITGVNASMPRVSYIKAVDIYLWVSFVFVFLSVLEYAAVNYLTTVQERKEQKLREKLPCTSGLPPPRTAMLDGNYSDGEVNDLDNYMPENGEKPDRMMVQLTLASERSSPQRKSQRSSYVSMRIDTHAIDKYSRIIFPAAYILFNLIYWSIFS

For the compound `C[C@]12CC[C@@H](O)C[C@@H]1CC[C@@H]1[C@@H]2CC[C@]2(C)[C@@H](C(=O)CO)CC[C@@H]12` [5α-THDOC], the activation at 10 µM in test [1] came out at 42 ± 2%. Moreover, on GLIC [2], the inhibition (usually how much of the control response was suppressed) at 30 µM amounted to 11 ± 2%. Take `C[C@]12CC[C@@H](O)C[C@H]1CC[C@@H]1[C@@H]2CC[C@]2(C)[C@@H](C(=O)CO)CC[C@@H]12` [5β-THDOC]: the inhibition at 10 µM in test [3] is 25 ± 2%. Also, at GLIC [4], the inhibition at 30 µM came out at 67 ± 3%.

With `CCCC(C)C1(CC)C(=O)NC(=O)NC1=O` (centres unmarked) [PB, pentobarbital], at GLIC [5], the inhibition at 100 µM came to 26 ± 6%.
